Assay results reported in publication PMC4503980 (Scientific Reports, 2015).

Assays:
Format in all cases: binding
[1] = molecular target: T1, PDZ1 of PSD-95 (Homo sapiens, UniProt P78352); test: FP inhibition assay, Cy5-GluN2B probe / PDZ1; settings: concentrations reaching 500–1800 μM; Cy5-GluN2B 50 nM; [PDZ1] = 10 μM (ZL006) or 18 μM (IC87201)
T1 construct: PDZ1 (61-151); made in house; host or cells: E. coli BL21-DE3 pLysS
Experimental: (§1) Fluorescent probes were made by attaching fluorophores (Cy5) to C-terminal 10- or 11-mer (C10 or C11) peptide ligands representing canonical and natural occurring protein partners (Supplementary Table S1). […] (Fig. 2).
(§2) (b) Cy5-GluN2B as probe (50 nM), [PDZ2] = 6 μM. (c) Cy5-CRIPT as probe (50 nM), [PDZ3] = 5 μM. […] Error bars indicate SEM based on three individual measurements. […]
(§3) Incubation time was 10–15 minutes (room temperature), and the assay was performed in a 1 × TBS buffer (150 mM NaCl, 10 mM Tris, pH 7.4) using black flat-bottom 384-well plates (Corning Life Sciences, NY) and a Safire2 plate-reader (Tecan, Männedorf, Switzerland). […] TAMRA- and Cy5-probes were measured at excitation/emission values of 530/585 nm (bandwidth = 20 nm) and 635/670 nm (bandwidth = 15 nm), respectively. […]
(§4) FP values were fitted to the general equation: Y = Bottom + (Top–Bottom)/[1 + (10^(X-logIC50)*HillSlope)], where X is the logarithmic value of peptide/compound concentration, and Y is the experimental FP values. Competitive inhibition constants, Ki values, were calculated from the IC50 values to quantify affinities between test substance and protein[42]. […]

[2] = molecular target: T2, PDZ3 of PSD-95 (Homo sapiens, UniProt P78352); test: FP inhibition assay, Cy5-CRIPT probe / PDZ3; settings: concentrations reaching 500–1800 μM; Cy5-CRIPT 50 nM; [PDZ3] = 5 μM
T2 construct: PDZ3 (309-401); made in house; host or cells: E. coli BL21-DE3 pLysS
Experimental: as §1, §2, §3, §4

[3] = molecular target: T3, nNOS-PDZ/PSD-95-PDZ1-2 interaction (Homo sapiens, UniProt P29475); test: 'indirect' FP assay, Cnskr2 probe / PSD-95-PDZ1-2 / nNOS-PDZ
T3 construct: nNOS-PDZ (12–130, human); PDZ1-2 (61-249); made in house; host or cells: E. coli
Source text: (§5) First we tested a series of 23 fluorescent-labelled C-terminal peptide ligands (Supplementary Table S1) derived from PDZ-interacting proteins in order to find a probe with good activity towards the PSD-95 PDZ domains and no or little activity against nNOS-PDZ (Supplementary Fig. S1). The Cnskr2 probe fulfilled these selectivity criteria and was used to generate saturation curves with PDZ2 and PDZ1-2 of PSD-95 (Fig. 4a). […] Next, fixed concentrations of TAMRA-Cnskr2, PSD-95-PDZ2/1-2, and nNOS-PDZ were applied, corresponding to the conditions at IC50 of the nNOS-PDZ inhibition curve (Fig. 4b) where sensitivity of the assay is greatest. […] Here, we used the Sapk3-peptide as it has the desired high affinity to α1-Syntrophin-PDZ and low affinity to nNOS-PDZ (Supplementary Fig. S1).
(§6) The minor increases in mP at high concentrations, 260-2900 μM, were due to fluorescence artefacts.
(§7) Similar, this assay was established with Syntrophin-PDZ and Sapk3 as probe (Fig. 4d).
(§8) In all cases, the DMSO effect on the assay was tested and found negligible.

[4] = molecular target: T4, α1-Syntrophin-PDZ/nNOS-PDZ interaction (Homo sapiens, UniProt P29475); test: 'indirect' FP assay, Cy5-Sapk3 / α-Syntrophin-PDZ / nNOS-PDZ; settings: up to 500–600 μM; Cy5-Sapk3 5 nM / α-Syntrophin-PDZ 14 μM / nNOS-PDZ 10 μM
T4 construct: nNOS-PDZ (12–130, human); α-Syntrophin-PDZ (82–200, human); made in house; host or cells: E. coli
Source text: as §5, §6, §7, §8

[5] = molecular target: T5, extended nNOS-PDZ (Mus musculus, UniProt Q9Z0J4); test: ITC titration into extended nNOS-PDZ; settings: 100 μM protein in cell, 750 μM compound in syringe, 1% DMSO, pH 6.3, 25 °C
T5 construct: nNOS-PDZ (residues 12–134, Uniprot Q9JJ30); made in house
Source text: Unlike the FP experiments above, which rely on inhibition of interaction partners, the ITC method is a direct measure of binding, regardless of where it takes place on the protein.
Figure 5 ITC curves. Plots showing titrations into PDZ domains fitted to a one-site model.
For isothermal titration calorimetry (ITC) and NMR, PSD-95-PDZ2 (157–249, human) was expressed and purified as described previously. The sequence for the extended Mus musculus nNOS-PDZ (residues 12–134, Uniprot Q9JJ30) was sub-cloned into a pETM11 vector using cloning sites Nco1 and Kpn1, and the protein was expressed and purified following a similar protocol to that used for the production of PSD-95-PDZ2.
All ITC experiments were carried out at 25 °C on an iTC200 Microcalorimeter (GE Healthcare) with a 200 μL cell capacity and 40 μL syringe volume. The buffer used for all solutions was 20 mM phosphate buffer at pH 6.3; each experiment consisted of an initial injection of 0.5 μL, followed by fifteen 2.39 μL injections before a final injection of 1.89 μL. […] In both cases no heat exchange was detected, confirming that there was appropriate match of buffer conditions with no indication of dilution effects. […] For the nNOS-PDZ/PSD-95-PDZ2 interaction, 100 μM PDZ2 in the cell was titrated with 750 μM nNOS-PDZ. […] All data was analysed using the Origin®7 software programme.

T3 sequence (P29475 12-130): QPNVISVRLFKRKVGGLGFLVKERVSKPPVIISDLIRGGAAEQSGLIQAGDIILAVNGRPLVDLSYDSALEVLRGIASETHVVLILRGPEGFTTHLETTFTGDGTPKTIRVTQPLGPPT
T4 sequence (P29475 12-130): as above
T5 sequence (Q9Z0J4 12-134): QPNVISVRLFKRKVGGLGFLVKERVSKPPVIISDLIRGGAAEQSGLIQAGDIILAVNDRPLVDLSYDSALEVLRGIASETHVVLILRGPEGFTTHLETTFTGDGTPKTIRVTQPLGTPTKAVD

SMILES: Oc1c(Cl)cc(Cl)cc1CNc1ccc2[nH]nnc2c1 [IC87201, 2-((1H-Benzo[d][1–3]triazol-5-ylamino)methyl)-4-6-dichlorophenol]
- inhibition of probe-PDZ interaction (PDZ1) [1]: did not inhibit
- inhibition of probe-PDZ interaction (PDZ3) [2]: did not inhibit
- activity in indirect FP assay (nNOS-PDZ/PSD-95-PDZ1-2) ([3]; up to 500–600 μM, Cy5-Cnskr2 5 nM / PSD-95-PDZ1-2 1 μM / nNOS-PDZ 5 μM): no activity
- activity in indirect FP assay (α1-Syntrophin-PDZ/nNOS-PDZ) [4]: no activity
- binding to extended nNOS-PDZ by ITC [5]: does not bind

SMILES: O=C(O)c1ccc(NCc2cc(Cl)cc(Cl)c2O)cc1O [ZL006, 4-((3,5-Dichloro-2-hydroxybenzyl)amino)-2-hydroxybenzoic acid]
- inhibition of probe-PDZ interaction (PDZ1) [1]: did not inhibit
- inhibition of probe-PDZ interaction (PDZ3) [2]: did not inhibit
- rise in FP signal (inhibition of nNOS-PDZ/PSD-95-PDZ1-2) ([3]; ZL006 0-2900 μM, TAMRA-Cnskr2 5 nM / PSD-95-PDZ1-2 1 μM / nNOS-PDZ 2.5 μM): no rise in FP signal
- activity in indirect FP assay (α1-Syntrophin-PDZ/nNOS-PDZ) [4]: no activity
- binding to extended nNOS-PDZ by ITC [5]: binding was too weak to produce a binding isotherm
